According to PubChem BioAssay (NCI):
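The compound was tested at five concentrations on cells cultured in 96-well plates, with a 48-hour exposure period. GI50 = concentration required for 50% inhibition of growth. TGI denotes the concentration required for complete inhibition of growth.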

How the values were obtained:
Test in all cases: NCI-60 cell line screen, 48 h
SK-MEL-28 melanoma = system: SK-MEL-28 melanoma
NCI-H23 lung = system: NCI-H23 lung
SN12C renal = system: SN12C renal
UACC-62 melanoma = system: UACC-62 melanoma
MCF7 breast = system: MCF7 breast
TK-10 renal = system: TK-10 renal
SF-268 CNS = system: SF-268 CNS
HCT-116 colon = system: HCT-116 colon
NCI/ADR-RES ovarian = system: NCI/ADR-RES ovarian
A549 NSCLC = system: A549 NSCLC
KM12 colon = system: KM12 colon
UO-31 renal = system: UO-31 renal
HCT-15 colon = system: HCT-15 colon
SK-OV-3 ovarian = system: SK-OV-3 ovarian
CAKI-1 renal = system: CAKI-1 renal
COLO 205 colon = system: COLO 205 colon
SW-620 colon = system: SW-620 colon
OVCAR-4 ovarian = system: OVCAR-4 ovarian
HL-60(TB) leukemia = system: HL-60(TB) leukemia
786-0 renal = system: 786-0 renal
A498 renal = system: A498 renal
MDA-MB-231 breast = system: MDA-MB-231 breast
MALME-3M melanoma = system: MALME-3M melanoma
IGROV1 ovarian = system: IGROV1 ovarian
SR leukemia = system: SR leukemia
K-562 leukemia = system: K-562 leukemia
LOX IMVI melanoma = system: LOX IMVI melanoma
U251 CNS = system: U251 CNS
HOP-62 NSCLC = system: HOP-62 NSCLC
RXF 393 renal = system: RXF 393 renal
PC-3 prostate = system: PC-3 prostate
DU-145 prostate = system: DU-145 prostate
SK-MEL-5 melanoma = system: SK-MEL-5 melanoma
EKVX NSCLC = system: EKVX NSCLC
MDA-MB-435 = system: MDA-MB-435
NCI-H226 lung = system: NCI-H226 lung
T-47D breast = system: T-47D breast
NCI-H522 lung = system: NCI-H522 lung
OVCAR-8 ovarian = system: OVCAR-8 ovarian
OVCAR-3 ovarian = system: OVCAR-3 ovarian
HS 578T breast = system: HS 578T breast
SNB-19 CNS = system: SNB-19 CNS
OVCAR-5 ovarian = system: OVCAR-5 ovarian
SF-295 CNS = system: SF-295 CNS
CCRF-CEM leukemia = system: CCRF-CEM leukemia
UACC-257 melanoma = system: UACC-257 melanoma
M14 melanoma = system: M14 melanoma
MOLT-4 leukemia = system: MOLT-4 leukemia
SF-539 CNS = system: SF-539 CNS
NCI-H460 lung = system: NCI-H460 lung

## CCOc1ccc2nc(S/C(=C/C=C(C#N)C#N)c3ccc(Cl)cc3)sc2c1
SK-MEL-28 melanoma
  GI50: 3.81 µM
  TGI: 15.9 µM
NCI-H23 lung
  GI50: 3.1 µM
  TGI: 10.1 µM
SN12C renal
  GI50: 2.86 µM
  TGI: 8.18 µM
UACC-62 melanoma
  GI50: 3.21 µM
  TGI: 12.5 µM
MCF7 breast
  GI50: 6.56 µM
  TGI: 26.7 µM
TK-10 renal
  GI50: 2.91 µM
  TGI: 9.83 µM
SF-268 CNS
  GI50: 4.63 µM
  TGI: 19 µM
HCT-116 colon
  GI50: 0.937 µM
  TGI: 2.6 µM
NCI/ADR-RES ovarian
  GI50: 2.32 µM
  TGI: 5.19 µM
A549 NSCLC
  GI50: 16.4 µM
  TGI: 33.2 µM
KM12 colon
  GI50: 3.84 µM
  TGI: 15.2 µM
UO-31 renal
  GI50: 8.08 µM
  TGI: 27 µM
HCT-15 colon
  GI50: 2.42 µM
  TGI: 8.81 µM
SK-OV-3 ovarian
  GI50: 4.34 µM
  TGI: 15.3 µM
CAKI-1 renal
  GI50: 4.34 µM
  TGI: 15.3 µM
COLO 205 colon
  GI50: 3.26 µM
  TGI: 11 µM
SW-620 colon
  GI50: 0.631 µM
  TGI: 2.92 µM
OVCAR-4 ovarian
  GI50: 12.4 µM
  TGI: 43.8 µM
HL-60(TB) leukemia
  GI50: 3.08 µM
  TGI: 34.3 µM
786-0 renal
  GI50: 1.95 µM
  TGI: 4.37 µM
A498 renal
  GI50: 2.46 µM
  TGI: 8.6 µM
MDA-MB-231 breast
  GI50: 1.91 µM
  TGI: 5.08 µM
MALME-3M melanoma
  GI50: 3.52 µM
  TGI: 21.9 µM
IGROV1 ovarian
  GI50: 3.57 µM
  TGI: 13 µM
SR leukemia
  GI50: 1.96 µM
  TGI: 7.8 µM
K-562 leukemia
  GI50: 3.43 µM
  TGI: 18.3 µM
LOX IMVI melanoma
  GI50: 0.546 µM
  TGI: 2.03 µM
U251 CNS
  GI50: 0.628 µM
  TGI: 4.29 µM
HOP-62 NSCLC
  GI50: 4.08 µM
  TGI: 13.2 µM
RXF 393 renal
  GI50: 5.3 µM
  TGI: 23.5 µM
PC-3 prostate
  GI50: 4.16 µM
  TGI: 11.8 µM
DU-145 prostate
  GI50: 3.51 µM
  TGI: 10.7 µM
SK-MEL-5 melanoma
  GI50: 1.76 µM
  TGI: 3.86 µM
EKVX NSCLC
  GI50: 12.9 µM
  TGI: 28.9 µM
MDA-MB-435
  GI50: 3.18 µM
  TGI: 9.84 µM
NCI-H226 lung
  GI50: 3.63 µM
  TGI: 13.2 µM
T-47D breast
  GI50: 3.91 µM
  TGI: 17.4 µM
NCI-H522 lung
  GI50: 4.43 µM
  TGI: 15.2 µM
OVCAR-8 ovarian
  GI50: 3.48 µM
  TGI: 10.3 µM
OVCAR-3 ovarian
  GI50: 2.99 µM
  TGI: 10.9 µM
HS 578T breast
  GI50: 4.22 µM
  TGI: 16.8 µM
SNB-19 CNS
  GI50: 6.72 µM
  TGI: 24.5 µM
OVCAR-5 ovarian
  GI50: 15.2 µM
  TGI: 28.5 µM
SF-295 CNS
  GI50: 9.85 µM
  TGI: 28.3 µM
CCRF-CEM leukemia
  GI50: 0.57 µM
  TGI: 3.19 µM
UACC-257 melanoma
  GI50: 9.1 µM
  TGI: 22.1 µM
M14 melanoma
  GI50: 2.13 µM
  TGI: 4.61 µM
MOLT-4 leukemia
  GI50: 1.65 µM
  TGI: > 100 µM
SF-539 CNS
  GI50: 3.6 µM
  TGI: 9.24 µM
NCI-H460 lung
  GI50: 7.49 µM
  TGI: 25 µM
